Data on eight compounds can be found in ChEMBL document CHEMBL1201862, “PubChem BioAssay data set” (2004).

The target in test [1] is T1, Carboxy-terminal domain RNA polymerase II polypeptide A small phosphatase 1 (Homo sapiens, UniProt Q9GZU7).
T1 sequence (Q9GZU7 whole entry): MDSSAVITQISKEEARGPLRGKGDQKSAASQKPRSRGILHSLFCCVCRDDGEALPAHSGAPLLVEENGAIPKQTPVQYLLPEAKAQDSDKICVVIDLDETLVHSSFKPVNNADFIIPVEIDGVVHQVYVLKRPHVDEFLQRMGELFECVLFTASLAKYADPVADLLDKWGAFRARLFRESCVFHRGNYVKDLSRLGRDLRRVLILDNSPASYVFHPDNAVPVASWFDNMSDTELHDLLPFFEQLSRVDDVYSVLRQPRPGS
As to the kind of experiment: CTDSP1 inhibitors, concentration-response, biochemical, absorbance readout, ultra-high-throughput screen actives (AID 540297). The test is classed as functional.

The target of a further test is Genome polyprotein (Hepatitis C virus, UniProt Q2Q167). As to the kind of experiment: disruption of hepatitis C core self-association – biochemical, TR-FRET, dose response (AID 2159).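 Also: blocks dimerization of HCV core protein measured by TR-FRET between tagged core106 pairs.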 Also noted: species or system Hepacivirus hominis.
Chain of Genome polyprotein (Q2Q167 whole entry): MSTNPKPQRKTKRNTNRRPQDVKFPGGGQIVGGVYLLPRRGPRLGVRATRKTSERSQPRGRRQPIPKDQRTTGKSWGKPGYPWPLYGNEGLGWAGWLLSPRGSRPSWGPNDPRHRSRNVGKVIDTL
The target of test [2] is C-C chemokine receptor type 6 (Homo sapiens, UniProt P51684). Kind of test: antagonism of CCR6 beta-arrestin recruitment – cell-based, luminescent beta-arrestin readout, dose response (AID 504728). Format: functional. A general note: Recruitment of arrestin is a read-out of receptor activation apart from second messengers.
Chain of C-C chemokine receptor type 6 (P51684 whole entry): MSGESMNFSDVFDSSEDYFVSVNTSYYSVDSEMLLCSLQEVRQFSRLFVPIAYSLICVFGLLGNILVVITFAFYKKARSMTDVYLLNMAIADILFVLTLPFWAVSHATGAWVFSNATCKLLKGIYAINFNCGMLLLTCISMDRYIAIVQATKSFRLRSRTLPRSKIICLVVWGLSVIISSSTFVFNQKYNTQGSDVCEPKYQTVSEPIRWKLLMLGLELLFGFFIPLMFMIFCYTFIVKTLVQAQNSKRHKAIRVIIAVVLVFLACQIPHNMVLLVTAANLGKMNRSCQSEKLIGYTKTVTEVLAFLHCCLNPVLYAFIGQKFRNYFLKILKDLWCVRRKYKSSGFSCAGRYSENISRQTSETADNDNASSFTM
The target in a further test is Beta-galactosidase (Escherichia coli, UniProt Q8VNN2). As to the kind of experiment: detection-enzyme interference by beta-gal modulators – biochemical, E. coli enzyme, set 3, artefact control for CCR6 antagonist project, dose response (AID 504712). Format: functional.
Test [3] deals with T2, Low molecular weight phosphotyrosine protein phosphatase (Homo sapiens, UniProt P24666).
T2 sequence (P24666 whole entry): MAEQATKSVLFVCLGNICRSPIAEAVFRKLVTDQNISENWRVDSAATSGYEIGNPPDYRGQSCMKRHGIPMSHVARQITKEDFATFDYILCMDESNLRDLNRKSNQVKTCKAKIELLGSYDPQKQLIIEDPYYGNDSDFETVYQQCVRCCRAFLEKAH
The test is classed as functional. As to conditions: read-out: IC50_Mean.

Test [4] concerns the target Eukaryotic translation initiation factor 4E (Mus musculus, UniProt P63073). Kind of test: blockers of eIF4G binding by eIF4E – biochemical, TR-FRET, dose response (AID 855).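 Also: potency for disrupting eIF4E binding to eIF4GI seen as loss of FRET.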 The test is classed as functional. A general note: In TR-FRET formats the signal depends on donor and acceptor labels being close together.
For test [5], the target named is T2, Low molecular weight phosphotyrosine protein phosphatase. The test is classed as functional. Conditions: read-out: IC50_Mean. The source holds these as a separate data set.
Test [6] concerns the target Induced myeloid leukemia cell differentiation protein Mcl-1 (Homo sapiens, UniProt Q07820). Format: functional.
Test [7] concerns the target T3, Calpain-2 catalytic subunit (Sus scrofa, UniProt P43367).
T3 sequence (P43367 whole entry): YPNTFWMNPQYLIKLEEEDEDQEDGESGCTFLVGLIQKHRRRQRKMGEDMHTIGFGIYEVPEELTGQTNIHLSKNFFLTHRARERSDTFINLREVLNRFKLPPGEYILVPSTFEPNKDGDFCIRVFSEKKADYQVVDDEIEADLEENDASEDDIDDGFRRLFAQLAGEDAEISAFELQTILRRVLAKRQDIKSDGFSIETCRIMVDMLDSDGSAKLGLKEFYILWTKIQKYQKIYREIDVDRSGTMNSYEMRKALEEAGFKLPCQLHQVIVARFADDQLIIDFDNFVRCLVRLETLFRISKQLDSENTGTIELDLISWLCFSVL
Kind of test: m-calpain protease blockers, concentration series – biochemical, fluorogenic peptide substrate, dose response (AID 1420). Format: functional.

Another test relates to Staphylococcus aureus. As to the kind of experiment: Inhibitors of Bacterial Quorum Sensing Structure Activity Relationship (SAR) Analysis: Dose Response Assay. [Related pubchem assays: 700, 527 ]. The test is classed as functional, organism-based.
The target in test [8] is Acyl-homoserine lactone acylase PvdQ (Pseudomonas aeruginosa (strain LESB58), UniProt Q9I194). Kind of test: PvdQ acylase enzyme activity blockers – biochemical, fluorescence, plate reader and imaging, cherry-picks, dose response (AID 493231).
Chain of Acyl-homoserine lactone acylase PvdQ (Q9I194 24-193 limits assumed): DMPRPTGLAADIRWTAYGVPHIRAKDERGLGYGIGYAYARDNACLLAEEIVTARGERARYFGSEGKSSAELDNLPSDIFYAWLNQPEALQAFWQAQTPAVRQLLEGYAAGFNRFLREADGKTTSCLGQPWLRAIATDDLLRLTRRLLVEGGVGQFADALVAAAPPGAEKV
Chain of Acyl-homoserine lactone acylase PvdQ (Q9I194 217-762 limits assumed): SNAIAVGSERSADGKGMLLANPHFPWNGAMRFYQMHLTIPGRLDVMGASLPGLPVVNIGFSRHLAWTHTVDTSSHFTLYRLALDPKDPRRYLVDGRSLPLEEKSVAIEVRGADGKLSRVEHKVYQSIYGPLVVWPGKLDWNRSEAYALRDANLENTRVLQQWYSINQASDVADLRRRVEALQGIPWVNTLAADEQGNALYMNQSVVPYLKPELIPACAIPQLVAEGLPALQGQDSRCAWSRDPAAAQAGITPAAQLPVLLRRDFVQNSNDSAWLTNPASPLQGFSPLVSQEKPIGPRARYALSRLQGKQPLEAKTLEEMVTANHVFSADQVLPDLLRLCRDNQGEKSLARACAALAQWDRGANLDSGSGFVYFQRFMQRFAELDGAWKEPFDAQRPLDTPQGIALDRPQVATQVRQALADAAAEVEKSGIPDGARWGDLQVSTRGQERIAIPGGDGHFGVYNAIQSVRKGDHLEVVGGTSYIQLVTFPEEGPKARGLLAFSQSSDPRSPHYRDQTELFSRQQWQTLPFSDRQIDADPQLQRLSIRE
Test [9] is described as follows: HEK-293T cell viability reduction – luminescence, B-cell screen hits, cytotoxicity control for BCR NF-kB inhibitor project, dose response (AID 489021).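 Also: HEK-293T cells carrying an NF-kB luciferase reporter; cells exposed to compound for about 14 hours before viability readout.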 Format: functional, cell-based.
Test [10] addresses Neurotensin receptor type 1 (Homo sapiens, UniProt P30989). Format: functional.
Test [11] deals with T4, Zinc finger protein mex-5 (Caenorhabditis elegans, UniProt Q9XUB2).
T4 sequence (Q9XUB2 whole entry): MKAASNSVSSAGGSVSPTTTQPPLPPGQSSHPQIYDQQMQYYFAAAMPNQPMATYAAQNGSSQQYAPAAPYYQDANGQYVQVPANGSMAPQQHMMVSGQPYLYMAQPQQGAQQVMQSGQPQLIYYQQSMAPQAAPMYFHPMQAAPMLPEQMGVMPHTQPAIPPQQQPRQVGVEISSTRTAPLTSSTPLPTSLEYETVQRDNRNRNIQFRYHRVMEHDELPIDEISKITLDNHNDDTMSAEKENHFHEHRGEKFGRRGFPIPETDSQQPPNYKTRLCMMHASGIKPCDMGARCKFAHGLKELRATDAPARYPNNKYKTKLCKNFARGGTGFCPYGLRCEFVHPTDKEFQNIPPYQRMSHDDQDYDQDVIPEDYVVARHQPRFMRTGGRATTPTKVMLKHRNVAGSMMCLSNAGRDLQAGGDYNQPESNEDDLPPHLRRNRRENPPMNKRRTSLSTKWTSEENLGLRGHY
As to the kind of experiment: potency of MEX-5 RNA-binding blockers – biochemical, C. elegans, fluorescence polarization, dose response (AID 1960). (Polarisation of emitted light reports the rotation of a fluorescent probe.)

Test [12] concerns the target T5, RNA-binding protein pos-1 (Caenorhabditis elegans, UniProt G5EF15).
T5 sequence (G5EF15 whole entry): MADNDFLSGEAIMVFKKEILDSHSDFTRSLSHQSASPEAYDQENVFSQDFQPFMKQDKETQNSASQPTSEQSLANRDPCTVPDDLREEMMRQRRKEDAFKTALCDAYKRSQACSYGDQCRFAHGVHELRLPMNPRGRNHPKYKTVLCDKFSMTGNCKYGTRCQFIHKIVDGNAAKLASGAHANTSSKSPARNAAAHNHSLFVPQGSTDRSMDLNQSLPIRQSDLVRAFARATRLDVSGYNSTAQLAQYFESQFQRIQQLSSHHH
Kind of test: disruptors of C. elegans POS-1 RNA interaction – biochemical, fluorescence polarization, dose response (AID 1964).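 Also: purified POS-1 fused to maltose binding protein made in E. coli; potency of compounds blocking POS-1 binding to fluorescent RNA.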

The target in test [13] is Melanin-concentrating hormone receptor 1 (Homo sapiens, UniProt Q99705). As to the kind of experiment: Fluorescence-based counterscreen for antagonists of the G-protein coupled receptor 7 (GPR7): cell-based high throughput dose response assay to identify antagonists of the melanin-concentrating hormone receptor 1 (MCHR1). Format: functional.
The target in test [14] is Neuropeptides B/W receptor type 1 (Homo sapiens, UniProt P48145). Kind of test: Fluorescence-based dose response cell-based high throughput screening assay to identify antagonists of the G-protein coupled receptor 7 (GPR7). [Related pubchem assays: 1952 (Screening assay (GPR7 antagonists).), 1880 (Summary AID.)]. Format: functional.
The target in test [15] is T6, Voltage-gated N-type calcium channel alpha-1B subunit/Amyloid beta A4 precursor protein-binding family A member 1 (Homo sapiens, UniProt Q00975+Q02410). As to the kind of experiment: disruptors of Mint-PDZ/N-type channel peptide interaction – biochemical, HTRF, set 2, SAR follow-up (AID 434980). Format: functional.
T6 sequence (Q00975 whole entry): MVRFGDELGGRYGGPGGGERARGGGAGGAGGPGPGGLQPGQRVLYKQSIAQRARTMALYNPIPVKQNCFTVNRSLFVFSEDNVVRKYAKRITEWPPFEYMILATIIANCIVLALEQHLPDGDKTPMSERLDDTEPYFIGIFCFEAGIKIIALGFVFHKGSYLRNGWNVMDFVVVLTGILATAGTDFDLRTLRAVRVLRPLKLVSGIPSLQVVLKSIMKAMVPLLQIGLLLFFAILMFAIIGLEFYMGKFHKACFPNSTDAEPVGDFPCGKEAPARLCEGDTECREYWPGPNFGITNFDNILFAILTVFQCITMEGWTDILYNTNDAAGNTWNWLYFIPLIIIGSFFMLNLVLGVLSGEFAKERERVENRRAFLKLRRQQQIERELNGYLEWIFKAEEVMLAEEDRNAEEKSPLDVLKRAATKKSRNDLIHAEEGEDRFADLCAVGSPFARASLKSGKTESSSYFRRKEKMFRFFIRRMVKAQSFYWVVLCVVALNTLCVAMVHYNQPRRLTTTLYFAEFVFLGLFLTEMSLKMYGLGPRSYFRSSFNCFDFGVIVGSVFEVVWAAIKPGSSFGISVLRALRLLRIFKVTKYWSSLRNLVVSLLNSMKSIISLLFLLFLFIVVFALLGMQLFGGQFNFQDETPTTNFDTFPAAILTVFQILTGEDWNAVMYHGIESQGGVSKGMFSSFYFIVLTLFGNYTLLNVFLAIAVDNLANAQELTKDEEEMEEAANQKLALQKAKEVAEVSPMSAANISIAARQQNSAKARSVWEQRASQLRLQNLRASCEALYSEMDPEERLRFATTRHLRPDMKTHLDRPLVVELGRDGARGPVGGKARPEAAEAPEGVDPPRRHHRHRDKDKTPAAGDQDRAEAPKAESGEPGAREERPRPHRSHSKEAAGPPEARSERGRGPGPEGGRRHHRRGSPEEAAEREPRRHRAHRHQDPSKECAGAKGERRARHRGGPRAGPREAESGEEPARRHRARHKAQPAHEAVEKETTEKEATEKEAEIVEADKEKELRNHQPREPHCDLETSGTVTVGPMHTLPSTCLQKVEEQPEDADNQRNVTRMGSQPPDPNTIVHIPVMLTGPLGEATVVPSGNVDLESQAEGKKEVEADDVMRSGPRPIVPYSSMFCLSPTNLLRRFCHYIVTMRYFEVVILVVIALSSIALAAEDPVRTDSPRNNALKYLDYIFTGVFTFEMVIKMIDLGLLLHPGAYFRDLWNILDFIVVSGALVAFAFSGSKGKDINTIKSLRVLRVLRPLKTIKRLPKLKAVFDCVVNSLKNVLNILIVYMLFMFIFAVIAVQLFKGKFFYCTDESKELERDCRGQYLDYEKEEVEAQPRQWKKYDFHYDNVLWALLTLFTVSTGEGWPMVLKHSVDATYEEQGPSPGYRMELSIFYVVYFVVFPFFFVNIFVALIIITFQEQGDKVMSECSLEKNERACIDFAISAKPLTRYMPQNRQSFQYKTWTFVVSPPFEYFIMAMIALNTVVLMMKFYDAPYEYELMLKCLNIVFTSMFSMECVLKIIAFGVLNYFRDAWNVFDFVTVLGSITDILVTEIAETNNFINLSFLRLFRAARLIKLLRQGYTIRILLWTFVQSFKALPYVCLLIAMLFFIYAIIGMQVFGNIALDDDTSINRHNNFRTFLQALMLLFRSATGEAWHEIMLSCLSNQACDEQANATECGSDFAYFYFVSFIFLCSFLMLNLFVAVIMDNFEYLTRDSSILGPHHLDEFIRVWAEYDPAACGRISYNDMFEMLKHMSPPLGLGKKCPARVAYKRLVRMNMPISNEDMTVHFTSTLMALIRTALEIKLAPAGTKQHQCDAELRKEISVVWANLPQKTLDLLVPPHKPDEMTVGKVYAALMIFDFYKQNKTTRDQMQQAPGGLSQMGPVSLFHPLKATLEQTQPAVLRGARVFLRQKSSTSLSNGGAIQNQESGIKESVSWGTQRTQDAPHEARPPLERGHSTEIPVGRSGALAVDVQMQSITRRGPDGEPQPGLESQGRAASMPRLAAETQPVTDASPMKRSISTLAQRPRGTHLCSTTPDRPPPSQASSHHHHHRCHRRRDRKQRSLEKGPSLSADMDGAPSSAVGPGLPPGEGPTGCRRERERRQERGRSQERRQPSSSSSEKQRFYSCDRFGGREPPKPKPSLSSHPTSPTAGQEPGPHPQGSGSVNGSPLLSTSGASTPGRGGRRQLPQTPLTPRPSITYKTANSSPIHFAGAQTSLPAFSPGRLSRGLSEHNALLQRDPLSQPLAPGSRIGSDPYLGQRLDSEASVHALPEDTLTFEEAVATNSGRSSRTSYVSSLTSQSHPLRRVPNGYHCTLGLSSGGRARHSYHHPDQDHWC
T6 sequence (Q02410 whole entry): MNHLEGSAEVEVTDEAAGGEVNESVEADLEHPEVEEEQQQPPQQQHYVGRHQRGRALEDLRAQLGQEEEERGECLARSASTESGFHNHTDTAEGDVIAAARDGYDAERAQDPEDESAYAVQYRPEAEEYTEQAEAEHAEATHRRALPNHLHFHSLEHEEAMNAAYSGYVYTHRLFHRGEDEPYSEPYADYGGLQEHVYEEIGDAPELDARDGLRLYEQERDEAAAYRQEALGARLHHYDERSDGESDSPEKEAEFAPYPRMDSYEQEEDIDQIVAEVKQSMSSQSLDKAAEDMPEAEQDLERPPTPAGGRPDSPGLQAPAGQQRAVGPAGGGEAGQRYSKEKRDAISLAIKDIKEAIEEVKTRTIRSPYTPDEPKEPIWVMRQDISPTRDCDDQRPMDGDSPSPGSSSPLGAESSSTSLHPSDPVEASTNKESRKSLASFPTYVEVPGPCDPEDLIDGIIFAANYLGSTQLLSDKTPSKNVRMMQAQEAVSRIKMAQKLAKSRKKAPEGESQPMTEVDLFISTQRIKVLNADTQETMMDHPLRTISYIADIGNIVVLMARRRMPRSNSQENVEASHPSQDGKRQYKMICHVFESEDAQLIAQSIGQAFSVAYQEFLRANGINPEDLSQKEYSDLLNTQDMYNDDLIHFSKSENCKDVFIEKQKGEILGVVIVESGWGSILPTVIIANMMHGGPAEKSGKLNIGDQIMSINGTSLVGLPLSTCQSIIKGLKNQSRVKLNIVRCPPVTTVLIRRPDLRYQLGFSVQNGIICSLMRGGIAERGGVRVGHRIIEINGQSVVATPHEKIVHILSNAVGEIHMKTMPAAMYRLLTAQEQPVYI
Test [16] addresses Female germline-specific tumor suppressor gld-1 (Caenorhabditis elegans, UniProt Q17339). Kind of test: blockers of GLD-1/TGE RNA complex formation – biochemical, fluorescence polarization, C. elegans, dose response (AID 2802).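 Also: fluorescence polarization of labeled TGE RNA bound by purified gld-1 protein.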
The target in the next test is Protein Rev (Human immunodeficiency virus type 1 group M subtype B (isolate HXB2)(HIV-1), UniProt P04618). As to the kind of experiment: blockers of HIV Rev/RRE RNA complex – biochemical, fluorescence polarization, HIV-1, dose response (AID 434976). Also noted: species or system Human immunodeficiency virus 1.
Test [17] concerns the target T7, Apoptotic protease-activating factor 1 (Homo sapiens, UniProt O14727).
T7 sequence (O14727 whole entry): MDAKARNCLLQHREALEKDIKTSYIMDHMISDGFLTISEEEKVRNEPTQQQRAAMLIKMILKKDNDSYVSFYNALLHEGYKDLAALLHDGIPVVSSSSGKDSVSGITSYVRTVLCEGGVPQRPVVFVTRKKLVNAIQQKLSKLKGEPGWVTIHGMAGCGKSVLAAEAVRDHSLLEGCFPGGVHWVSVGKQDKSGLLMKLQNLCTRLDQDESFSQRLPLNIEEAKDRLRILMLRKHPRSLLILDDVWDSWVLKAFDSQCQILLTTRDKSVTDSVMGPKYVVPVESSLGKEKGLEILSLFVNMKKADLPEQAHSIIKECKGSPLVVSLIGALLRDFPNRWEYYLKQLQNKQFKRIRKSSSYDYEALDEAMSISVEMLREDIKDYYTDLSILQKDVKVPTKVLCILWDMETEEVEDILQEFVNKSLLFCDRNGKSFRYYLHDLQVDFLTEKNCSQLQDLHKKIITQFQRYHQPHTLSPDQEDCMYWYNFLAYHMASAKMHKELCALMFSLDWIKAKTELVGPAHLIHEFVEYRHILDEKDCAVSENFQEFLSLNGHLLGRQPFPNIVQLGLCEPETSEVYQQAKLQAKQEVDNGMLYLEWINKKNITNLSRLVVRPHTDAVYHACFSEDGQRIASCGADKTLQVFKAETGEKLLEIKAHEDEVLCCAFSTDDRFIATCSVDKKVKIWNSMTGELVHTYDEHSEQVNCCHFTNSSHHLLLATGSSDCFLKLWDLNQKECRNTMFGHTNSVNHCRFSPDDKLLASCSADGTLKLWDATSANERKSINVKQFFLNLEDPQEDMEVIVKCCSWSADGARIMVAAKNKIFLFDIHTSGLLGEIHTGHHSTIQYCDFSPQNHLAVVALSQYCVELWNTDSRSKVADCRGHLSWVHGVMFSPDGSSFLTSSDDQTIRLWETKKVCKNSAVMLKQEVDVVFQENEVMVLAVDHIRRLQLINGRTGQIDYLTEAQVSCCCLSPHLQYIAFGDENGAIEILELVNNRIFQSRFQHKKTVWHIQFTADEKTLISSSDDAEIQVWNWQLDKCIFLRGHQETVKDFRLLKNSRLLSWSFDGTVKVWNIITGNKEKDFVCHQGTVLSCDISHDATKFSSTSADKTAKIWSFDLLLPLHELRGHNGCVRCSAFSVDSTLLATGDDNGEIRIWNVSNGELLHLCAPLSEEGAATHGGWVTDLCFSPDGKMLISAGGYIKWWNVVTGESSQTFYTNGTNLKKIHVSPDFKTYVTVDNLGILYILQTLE
The test is classed as functional.

For test [18], the target named is T6, Voltage-gated N-type calcium channel alpha-1B subunit/Amyloid beta A4 precursor protein-binding family A member 1. Format: protein assay.
Test [19] has the same target. Format: protein assay. This is another data set of the same source.

Activity calls are given as the source filed them.

Chain of Induced myeloid leukemia cell differentiation protein Mcl-1 (Q07820 whole entry): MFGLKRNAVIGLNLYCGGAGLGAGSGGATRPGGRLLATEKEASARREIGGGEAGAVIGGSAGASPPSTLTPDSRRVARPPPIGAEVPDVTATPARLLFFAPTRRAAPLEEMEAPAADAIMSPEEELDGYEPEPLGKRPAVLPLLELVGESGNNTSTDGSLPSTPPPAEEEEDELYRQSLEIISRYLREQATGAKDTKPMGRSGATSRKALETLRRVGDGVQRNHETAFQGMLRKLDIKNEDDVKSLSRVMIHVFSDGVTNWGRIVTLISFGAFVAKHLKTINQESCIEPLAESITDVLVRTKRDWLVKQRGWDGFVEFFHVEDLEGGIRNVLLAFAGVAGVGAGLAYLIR
Chain of Eukaryotic translation initiation factor 4E (P63073 whole entry): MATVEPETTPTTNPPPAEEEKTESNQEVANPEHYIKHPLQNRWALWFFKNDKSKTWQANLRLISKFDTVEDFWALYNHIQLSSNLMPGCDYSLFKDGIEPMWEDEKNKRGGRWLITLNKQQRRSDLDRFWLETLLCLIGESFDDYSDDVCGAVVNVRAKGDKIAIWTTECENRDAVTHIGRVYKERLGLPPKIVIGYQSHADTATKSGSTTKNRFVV

On to `O=C(N=Nc1c(O)[nH]c2ccc([N+](=O)[O-])cc12)c1cc(-c2ccccc2Cl)nc2ccccc12`, for which the IC50 in [1] is 0.711 µM (active); on Genome polyprotein, > 49.8 µM (not active); in test [2] it was > 66.6 µM (inactive); at Beta-galactosidase it was > 66.6 µM (inactive); in test [3], 2.89 µM (active); in test [4] it was > 64 µM (inactive). For the same compound, the IC50 was 1.98 µM (active) in [5], 1.18 µM (active) in test [6] and 4.56 µM (not active) in [7].

For the compound `COc1ccc(CC(=O)Nc2oc(-c3ccccc3)c(-c3ccccc3)c2C#N)cc1`, in the test on Staphylococcus aureus, the IC50 was 1.96 µM (active).

One may read the AC50 as the midpoint of the concentration-response curve, whichever way the signal moves. For the compound `CCOC(=O)N1CCN(c2nc3ccccn3c(=O)c2C=O)CC1`, in [8], the AC50 is 32.9 µM (active).

Consider `NC(=S)N=Nc1c(O)n(Cc2ccccc2)c2ccccc12`, for which, in test [9], the IC50 is > 80 µM (inactive).

A word on the EC50: it is the concentration giving half of the maximal effect. For `O=C(CC1Nc2ccccc2NC1=O)Nc1cc(Cl)cc(Cl)c1` (stereo not drawn), the EC50 in [10] is 8.64 µM (active); in test [11], > 300 µM (not active); in [12], 152 µM (active).

Turning to `CCOC(=O)CNC(c1ccccc1)c1cc(Br)ccc1NC(C)=O` (stereo not drawn), the IC50 in [13] and in test [14] was > 43.8 µM (not active) each time.

With `O=C(NC1CCc2ccccc2C1)c1cc(-c2ccco2)nc2ccccc12` (stereo not drawn), in test [15], the IC50 was > 56.8 µM (inactive).

Take `Nc1cc2nc3ccccc3nc2cc1N`: the IC50 in test [16] was 4.97 µM (active); on Protein Rev it was 9.53 µM (active); in test [17] it was > 100 µM (inactive); in test [18], 9.86 µM (active); in [19], > 50 µM (inactive).
